Tests used:
Type in all cases: cell-based, human
[1] = test system: MV4-11; assay: GILT-based combinatory treatments for MV4-11 in vitro (synergy, relapse, FACS, imaging)
Description: FLT3, the most frequently mutated gene in AML patients, is often associated with poorer overall survival with an increased risk of relapse. However, the anti-leukemic effects of the latest FLT3 inhibitors as monotherapy or in combination with standard treatments are constrained by a short duration of response and a high rate of relapse. Accordingly, whether targeting the compensation pathways along with administration of FLT3 inhibitors, e.g., GILT, prevents relapse. A list of the in vitro trials of GILT in combination with inhibitors (commercially available) targeting new pathways on MV4-11 is provided in Table 1. […]
(§1) Flow Cytometry (FACS). […] About 1×10^4˜10^6 cells in 100 μl FACS buffer (PBS containing 1% FBS and 0.05% sodium azide) were stained with various fluorescence-conjugated antibodies specific for the desired cell surface proteins at 4° C. for 30 min. The surface-stained cells were then fixed and permeabilized using the appropriate reagents (e.g. the BD Pharmingen Cytofix/Cytoperm buffer) and stained with different fluorescence-conjugated antibodies specific for the desired intracellular proteins at 4° C. for 2 hours in the permeabilizing buffer (e.g. the BD Perm/Wash buffer). […] Finally, the cells were washed twice in the permeabilizing buffer and twice in the FACS buffer before being analyzed on the BD FACSAria II. […]

[2] = test system: MV4-11 cells; assay: FACS of TKI-treated MV4-11 cells in vitro (viable blasts, Ki67, pBAD); settings: 3 days after one dose of 80 nM TKI; vs non-treatment controls
Description: (§2) The AML cells were analyzed at different time points after exposure to TKI (3 days, 10 days, 20 days, and 28 days). […] After 3 days, FACS of the surface markers and intracellular proteins, including CD14, CD33, CD44, and Ki67, were performed. FIGS. 1A-1E depicts therapeutic effect of different TKIs on MV4-11 and MOLM-14 cells in vitro (N=6). […] The circles indicate the group of viable blasts located in a FACS plot and green arrows indicate the dying tendency of blasts which will become positive for viability dye during the next few days. FIGS. 1C and 1D are graphical representations of the cumulative FACS percentage data of viable MV4-11 and MOLM-14 cells. *P<0.05. […]
as §1

[3] = test system: MOLM-14 cells; assay: FACS of TKI-treated MOLM-14 cells in vitro (viable blasts, pBAD); settings: 3 days after one dose of 80 nM TKI; vs non-treatment controls
Description: as §2, §1

[4] = test system: MOLM-14 cells; assay: Phase-bright imaging of re-growth of TKI-treated MOLM-14; settings: 10 days after TKI treatment
Description: To follow the cell fate of TKI-treated MV4-11 and MOLM-14, culturing of blasts were continued by performing medium change every 2-3 days. […] The BAD protein is a pro-apoptotic member of the BCL-2 gene family, which is involved in initiating apoptosis. Dephosphorylated BAD is pro-apoptotic by binding BCL-2 and inactivating BCL-2, while phosphorylated BAD (pBAD) is anti-apoptotic by leaving BCL-2 free to inhibit BAX-triggered apoptosis.
Small Molecular Inhibitors and in vitro & ex vivo Treatment. […] The dose of 80 nM for the four TKIs was selected based on their dose-dependent cytotoxicity in previous reports. […] Both GILT and QUIZ were reported to start to suppress the tumorigenic clustering and c-Kit at the dose of 80 nM. […] The combination of 5 μM 5-Azacitidine (AZA) and 80 nM 1α,25-Dihydroxyvitamin D3 (VD3) was added to the experimental group similar to the previous report. As combination agents to treat blasts in vitro, one dose of 80 nM GILT with one dose of either 100 nM Venetoclax (BCL2 inhibitor), 10 μM (R)-Lisofylline (STAT4 inhibitor), 100 nM AZD1208 (PIM inhibitor), 500 nM PF-06826647 (TYK2 inhibitor), or 500 nM AT9283 (JAK2/3 inhibitor) were added to 1 ml of 1×10^6 cells for each experimental group in 24 well plates. Three days after the one dose treatment, cells were then collected for either analyses by FACS and qPCR, or re-plated into 24 well plates for continued culture. […]

SMILES | population of viable blasts (FACS) ([1]; MV4-11, 3 days after combination treatment) | viable Ki67+CD33+CD44+ cells (cell number count) ([1]; MV4-11, 7 days after combination treatment) | viable MV4-11 blasts (FACS) [2] | viable MOLM-14 blasts (FACS) [3] | re-growth / tumorigenic clusters of MOLM-14 [4]
CCc1nc(C(N)=O)c(Nc2ccc(N3CCC(N4CCN(C)CC4)CC3)c(OC)c2)nc1NC1CCOCC1 [GILT, Gilteritinib] | 26.9% | 180 cells | – | – | –
CC(C)(C)c1cc(NC(=O)Nc2ccc(-c3cn4c(n3)sc3cc(OCCN5CCOCC5)ccc34)cc2)no1 [QUIZ, Quizartinib] | – | – | more effective | more effective | few newly formed tumorigenic clusters
